Source: patent publication US20260200920A1, “SUBSTITUTED AMINOPYRIDINE COMPOUNDS FOR USE AS AKT1 INHIBITORS” (Atavistik Bio, Inc., priority 2023, published 2026)

Legend:
[1] = target: T1, human recombinant kinase full-length AKT1 E17K (Homo sapiens, UniProt P31749, E17K); assay: AKT1 E17K kinase assay (TR-FRET, Lance); assay type: biochemical; details: 0.6 nM AKT1 E17K, 50 nM Ulight-CREBtide, either 50 μM ATP or 2 mM ATP, 60 min at RT
T1 construct: Purified human recombinant kinase full-length AKT1 E17K was expressed in insect cells; made in house; host or cells: insect cells
Summary of the method: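 IC50 came from a 10-point, 4-parameter fit of the 665/620 TR-FRET ratio read with Eu-anti-phospho-CREB (Ser133). Reaction at RT for 60 min after 15 min compound preincubation, using 0.6 nM PDPK1-activated full-length AKT1 E17K (insect-cell), 50 nM Ulight-CREBtide, ATP at 50 μM or 2 mM, HEPES pH 7.5, 1% DMSO.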

[2] = target: T2, human recombinant kinase full-length wildtype AKT1 (Homo sapiens, UniProt P31749); assay: AKT1 kinase assay (wildtype, TR-FRET, Lance); assay type: biochemical; details: 0.6 nM wildtype AKT1, 50 nM Ulight-CREBtide, either 50 μM ATP or 2 mM ATP, 60 min at RT
T2 construct: Purified human recombinant kinase full-length wildtype AKT1 was expressed in insect cells; made in house; host or cells: insect cells
Summary of the method: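 TR-FRET 665/620 ratio quantified phospho-CREBtide formed by PDPK1-activated full-length human AKT1 (0.6 nM, insect-cell-derived) over 60 min at RT with 50 nM ULight-CREBtide and either 50 μM or 2 mM ATP. Compounds were preincubated 15 min with enzyme; IC50 came from 4-parameter fits of 10-point duplicates.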

T2 sequence (P31749 whole entry): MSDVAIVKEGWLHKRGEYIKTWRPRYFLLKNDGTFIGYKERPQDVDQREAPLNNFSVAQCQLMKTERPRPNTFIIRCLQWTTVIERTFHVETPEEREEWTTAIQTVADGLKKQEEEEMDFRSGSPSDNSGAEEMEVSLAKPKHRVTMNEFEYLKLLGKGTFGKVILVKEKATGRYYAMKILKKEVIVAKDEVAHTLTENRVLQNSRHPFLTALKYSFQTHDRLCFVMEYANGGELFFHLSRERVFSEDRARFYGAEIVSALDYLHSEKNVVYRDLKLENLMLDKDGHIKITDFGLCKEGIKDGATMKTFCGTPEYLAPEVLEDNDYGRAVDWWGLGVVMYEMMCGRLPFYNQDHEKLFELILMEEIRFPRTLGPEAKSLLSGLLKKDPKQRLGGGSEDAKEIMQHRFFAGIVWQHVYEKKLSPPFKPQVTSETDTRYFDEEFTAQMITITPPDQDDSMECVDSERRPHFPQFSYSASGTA
T1 sequence (P31749 whole entry E17K): as the sequence (P31749 whole entry) above, with E17K counted along it

SMILES	IC50 [1]	IC50 [2]
Nc1ncccc1-c1nc2ccc(C3CCCCC3)nc2n1-c1ccc(NC(=O)[C@H]2CC[C@H](C(=O)O)CC2)nc1 [Compound I-119, (1r,4r)-4-((5-(2-(2-aminopyridin-3-yl)-5-cyclohexyl-3H-imidazo[4,5-b]pyridin-3-yl)pyridin-2-yl)carbamoyl)cyclohexane-1-carboxylic acid]	500 to 2000 nM	< 20000 nM
Nc1ncccc1-c1nc2ccc(C3CCCC3)nc2n1-c1ccc(NC(=O)[C@H]2CC[C@H](C(=O)O)CC2)nc1 [Compound I-120, (1r,4r)-4-((5-(2-(2-aminopyridin-3-yl)-5-cyclopentyl-3H-imidazo[4,5-b]pyridin-3-yl)pyridin-2-yl)carbamoyl) cyclohexane-1-carboxylic acid]	500 to 2000 nM	< 20000 nM
NC(=O)N1CCC(C(=O)Nc2ccc(-n3c(-c4cccnc4N)nc4ccc(-c5ccccc5)nc43)cn2)CC1 [Compound I-122, N^4-(5-(2-(2-aminopyridin-3-yl)-5-phenyl-31-imidazo[4,5-b]pyridin-3-yl)pyridin-2-yl)piperidine-1,4-dicarboxamide]	< 500 nM	< 20000 nM
Nc1ncccc1-c1nc2ccc(OC(F)(F)F)cc2n1-c1ccc(NC(=O)[C@H]2CC[C@H](C(=O)O)CC2)nc1 [Compound I-123, (1r,4r)-4-((5-(2-(2-aminopyridin-3-yl)-6-(trifluoromethoxy)-1H-benzo[d]imidazol-1-yl)pyridin-2-yl)carbamoyl)cyclohexane-1-carboxylic acid]	≥ 2000 nM	< 20000 nM
Cc1nc(NC(=O)C2CC3(CC(C(=O)O)C3)C2)ccc1-n1c(-c2cccnc2N)nc2ccc(-c3ccccc3)nc21 (centres unmarked) [Compound I-125, 6-((5-(2-(2-aminopyridin-3-yl)-5-phenyl-3H-imidazo[4,5-b]pyridin-3-yl)-6-methylpyridin-2-yl)carbamoyl)spiro[3.3]heptane-2-carboxylic acid]	< 500 nM	< 20000 nM
Cc1nc(NC(=O)C2CCC(C)(C(=O)O)CC2)ccc1-n1c(-c2cccnc2N)nc2ccc(-c3ccccc3)nc21 (centres unmarked) [Compound I-128, 4-((5-(2-(2-aminopyridin-3-yl)-5-phenyl-3H-imidazo[4,5-b]pyridin-3-yl)-6-methylpyridin-2-yl)carbamoyl)-1-methylcyclohexane-1-carboxylic acid]	500 to 2000 nM	< 20000 nM
Cc1nc(NC[C@H]2CC[C@H](C(=O)O)CC2)ccc1-n1c(-c2cccnc2N)nc2ccc(-c3ccccc3)nc21 [Compound I-131, (1r,4r)-4-(((5-(2-(2-aminopyridin-3-yl)-5-phenyl-3H-imidazo[4,5-b]pyridin-3-yl)-6-methylpyridin-2-yl)amino)methyl)cyclohexane-1-carboxylic acid]	500 to 2000 nM	< 20000 nM
Cc1nc(NC(=O)C2CCC(C(C)C(=O)O)C2)ccc1-n1c(-c2cccnc2N)nc2ccc(-c3ccccc3)nc21 (centres unmarked) [Compound I-132, 2-(3-((5-(2-(2-aminopyridin-3-yl)-5-phenyl-3H-imidazo[4,5-b]pyridin-3-yl)-6-methylpyridin-2-yl)carbamoyl)cyclopentyl)propanoic acid]	500 to 2000 nM	< 20000 nM
CC(C)(C(=O)O)C1CCN(Cc2ccc(-n3c(-c4cccnc4N)nc4ccc(-c5ccccc5)nc43)cn2)CC1 [Compound I-135, 2-(1-((5-(2-(2-aminopyridin-3-yl)-5-phenyl-3H-imidazo[4,5-b]pyridin-3-yl)pyridin-2-yl)methyl)piperidin-4-yl)-2-methylpropanoic acid]	≥ 2000 nM	< 20000 nM
Nc1ncccc1-c1nc2ccc(-c3ccccc3)nc2n1-c1ccc(CN2CC3(CC(C(=O)O)C3)C2)nc1 [Compound I-136, 2-((5-(2-(2-aminopyridin-3-yl)-5-phenyl-3H-imidazo[4,5-b]pyridin-3-yl)pyridin-2-yl)methyl)-2-azaspiro[3.3]heptane-6-carboxylic acid]	500 to 2000 nM	< 20000 nM
Nc1ncccc1-c1nc2ccc(-c3ccccc3)nc2n1-c1ccc(NCC2CC3(C2)CC(C(=O)O)C3)nc1 (centres unmarked) [Compound I-137, 6-(((5-(2-(2-aminopyridin-3-yl)-5-phenyl-3H-imidazo[4,5-b]pyridin-3-yl)pyridin-2-yl)amino)methyl)spiro[3.3]heptane-2-carboxylic acid]	< 500 nM	< 20000 nM

Second part, the molecule after the results:

IC50 [1]	IC50 [2]	SMILES
< 500 nM	< 20000 nM	Cc1nc(N[C@H]2CC[C@H](C(=O)O)CC2)ccc1-n1c(-c2cccnc2N)nc2ccc(-c3ccccc3)nc21 [Compound I-121, (1r,4r)-4-((5-(2-(2-aminopyridin-3-yl)-5-phenyl-3H-imidazo[4,5-b]pyridin-3-yl)-6-methylpyridin-2-yl)amino)cyclohexane-1-carboxylic acid]
≥ 2000 nM	< 20000 nM	CC(C)Oc1ccc2nc(-c3cccnc3N)n(-c3ccc(NC(=O)[C@H]4CC[C@H](C(=O)O)CC4)nc3)c2c1 [Compound I-124, (1r,4r)-4-((5-(2-(2-aminopyridin-3-yl)-6-isopropoxy-1H-benzo[d]imidazol-1-yl)pyridin-2-yl)carbamoyl)cyclohexane-1-carboxylic acid]
≥ 2000 nM	< 20000 nM	Cc1nc(-n2c(-c3cccnc3N)nc3ccc(-c4ccccc4)nc32)ccc1NC(=O)C1CC2(CC(C(=O)O)C2)C1 (centres unmarked) [Compound I-126, 6-((6-(2-(2-aminopyridin-3-yl)-5-phenyl-3H-imidazo[4,5-b]pyridin-3-yl)-2-methylpyridin-3-yl)carbamoyl)spiro[3.3]heptane-2-carboxylic acid]
500 to 2000 nM	< 20000 nM	Cc1nc(NC(=O)[C@H]2CC[C@H](C(=O)O)CC2)ccc1-n1c(-c2cccnc2N)nc2ccc(-c3ccccc3)cc21 [Compound I-127, (1r,4r)-4-((5-(2-(2-aminopyridin-3-yl)-6-phenyl-1H-benzo[d]imidazol-1-yl)-6-methylpyridin-2-yl)carbamoyl)cyclohexane-1-carboxylic acid]
500 to 2000 nM	< 20000 nM	Cc1nc(NC(=O)C2CCC(C(=O)O)C2)ccc1-n1c(-c2cccnc2N)nc2ccc(-c3ccccc3)nc21 (centres unmarked) [Compound I-129, 3-((5-(2-(2-aminopyridin-3-yl)-5-phenyl-3H-imidazo[4,5-b]pyridin-3-yl)-6-methylpyridin-2-yl)carbamoyl)cyclopentane-1-carboxylic acid]
≥ 2000 nM	< 20000 nM	Cc1nc(NC(=O)[C@H]2CC[C@H](C(=O)O)CC2)ccc1-n1c(-c2cccnc2N)nc2ccc(-c3ccccn3)cc21 [Compound I-130, (1r,4r)-4-((5-(2-(2-aminopyridin-3-yl)-6-(pyridin-2-yl)-1H-benzo[d]imidazol-1-yl)-6-methylpyridin-2-yl)carbamoyl)cyclohexane-1-carboxylic acid]
≥ 2000 nM	< 20000 nM	Cc1nc(-n2c(-c3cccnc3N)nc3ccc(-c4ccccn4)cc32)ccc1NC(=O)[C@H]1CC[C@H](C(=O)O)CC1 [Compound I-133, (1r,4r)-4-((6-(2-(2-aminopyridin-3-yl)-6-(pyridin-2-yl)-1H-benzo[d]imidazol-1-yl)-2-methylpyridin-3-yl)carbamoyl)cyclohexane-1-carboxylic acid]
500 to 2000 nM	< 20000 nM	Cc1nc(N[C@H]2CC[C@@H](C(=O)O)CC2)ccc1-n1c(-c2cccnc2N)nc2ccc(-c3ccccc3)nc21 [Compound I-134, (1s,4s)-4-((5-(2-(2-aminopyridin-3-yl)-5-phenyl-3H-imidazo[4,5-b]pyridin-3-yl)-6-methylpyridin-2-yl)amino)cyclohexane-1-carboxylic acid]
